From the supplement of paper PMC10307832

Key:
Test in all cases: relative viability (nuclei count vs DMSO), 5 days (fraction); higher = more cells survive
Entinostat + Alpelisib = compound: Nc1ccccc1NC(=O)c1ccc(CNC(=O)OCc2cccnc2)cc1 [Entinostat] + Cc1nc(NC(=O)N2CCC[C@H]2C(N)=O)sc1-c1ccnc(C(C)(C)C(F)(F)F)c1 [Alpelisib] (partner 2 µM)
Method in brief: (§1)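 Each reported value is a median over duplicate plates. It expresses relative viability: treated-well nuclei count divided by vehicle-well nuclei count. Lung cancer cell lines in 1536-well plates were dosed by pin tool a day after seeding, alone with one drug or with a fixed anchor-drug dose plus five library-drug doses (not always all listed) in √10 steps, and nuclei were counted after 5 days.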

Entinostat + Crizotinib = compound: Nc1ccccc1NC(=O)c1ccc(CNC(=O)OCc2cccnc2)cc1 [Entinostat] + C[C@@H](Oc1cc(-c2cnn(C3CCNCC3)c2)cnc1N)c1c(Cl)ccc(F)c1Cl [Crizotinib] (partner 1 µM)
Method in brief: as §1

Entinostat + OSI-027 = compound: Nc1ccccc1NC(=O)c1ccc(CNC(=O)OCc2cccnc2)cc1 [Entinostat] + COc1cccc2cc(-c3nc([C@H]4CC[C@H](C(=O)O)CC4)n4ncnc(N)c34)[nH]c12 [OSI-027] (partner 0.5 µM)
Method in brief: as §1

Entinostat + Foretinib = compound: Nc1ccccc1NC(=O)c1ccc(CNC(=O)OCc2cccnc2)cc1 [Entinostat] + COc1cc2c(Oc3ccc(NC(=O)C4(C(=O)Nc5ccc(F)cc5)CC4)cc3F)ccnc2cc1OCCCN1CCOCC1 [Foretinib] (partner 0.25 µM)
Method in brief: as §1

Cell Line | relative viability (Entinostat + Alpelisib; first compound 0.02 µM) | relative viability (Entinostat + Alpelisib; first compound 0.06325 µM) | relative viability (Entinostat + Alpelisib; first compound 0.2 µM) | relative viability (Entinostat + Alpelisib; first compound 0.6325 µM) | relative viability (Entinostat + Alpelisib; first compound 2 µM) | relative viability (Entinostat + Crizotinib; first compound 0.02 µM) | relative viability (Entinostat + Crizotinib; first compound 0.06325 µM) | relative viability (Entinostat + Crizotinib; first compound 0.2 µM) | relative viability (Entinostat + Crizotinib; first compound 0.6325 µM) | relative viability (Entinostat + Crizotinib; first compound 2 µM) | relative viability (Entinostat + OSI-027; first compound 0.02 µM) | relative viability (Entinostat + OSI-027; first compound 0.06325 µM) | relative viability (Entinostat + OSI-027; first compound 0.2 µM) | relative viability (Entinostat + OSI-027; first compound 0.6325 µM) | relative viability (Entinostat + OSI-027; first compound 2 µM) | relative viability (Entinostat + Foretinib; first compound 0.02 µM) | relative viability (Entinostat + Foretinib; first compound 0.06325 µM) | relative viability (Entinostat + Foretinib; first compound 0.2 µM) | relative viability (Entinostat + Foretinib; first compound 0.6325 µM) | relative viability (Entinostat + Foretinib; first compound 2 µM)
201T | 1.01 | 1.08 | 1.02 | 0.859 | 0.525 | 1.03 | 1.03 | 0.919 | 0.743 | 0.754 | 0.92 | 0.726 | 0.619 | 0.548 | 0.45 | 1.12 | 1.22 | 1.2 | 0.958 | 0.453
A549 | 0.851 | 0.729 | 0.704 | 0.515 | 0.238 | 0.775 | 0.863 | 0.743 | 0.449 | 0.111 |  |  |  |  |  | 1.01 | 0.942 | 0.878 | 0.757 | 0.288
A-427 | 1.01 | 1.1 | 1.05 | 0.943 | 0.845 | 0.808 | 1.06 | 0.864 | 0.665 | 0.545 | 0.505 | 0.489 | 0.403 | 0.395 | 0.343 | 1.2 | 1.16 | 1.06 | 1 | 0.811
ABC-1 | 0.949 | 1.14 | 0.966 | 0.661 | 0.48 | 0.925 | 1.24 | 1.17 | 0.814 | 0.28 | 0.446 | 0.524 | 0.544 | 0.351 | 0.247 | 1.05 | 1.19 | 0.906 | 0.805 | 0.545
BEN | 1.21 | 0.944 | 1.02 | 0.6 | 0.275 | 0.985 | 0.884 | 0.997 | 0.631 | 0.31 | 0.271 | 0.353 | 0.323 | 0.302 | 0.217 | 0.782 | 0.756 | 0.465 | 0.498 | 0.283
CAL-12T | 1.22 | 1.18 | 1.41 | 1.08 | 0.962 | 0.7 | 0.732 | 0.864 | 0.594 | 0.251 | 0.583 | 0.719 | 0.698 | 0.601 | 0.305 | 1.17 | 1.14 | 1.27 | 1.07 | 1.01
COR-L23 | 0.658 | 0.632 | 0.547 | 0.321 | 0.175 | 0.508 | 0.524 | 0.513 | 0.205 | 0.0924 | 0.67 | 0.599 | 0.621 | 0.291 | 0.264 | 0.919 | 0.857 | 0.943 | 0.495 | 0.308
COR-L 105 | 0.842 | 0.925 | 0.844 | 0.608 | 0.345 | 0.92 | 0.778 | 0.655 | 0.494 | 0.216 | 0.735 | 0.875 | 0.977 | 0.688 | 0.297 | 1.19 | 0.997 | 1.14 | 0.677 | 0.548
Calu-6 | 1.01 | 1.06 | 0.941 | 0.624 | 0.457 | 0.738 | 0.713 | 0.755 | 0.494 | 0.317 |  |  |  |  |  | 0.889 | 0.849 | 0.873 | 0.565 | 0.513
ChaGo-K-1 |  |  |  |  |  | 1.18 | 1.19 | 0.967 | 0.966 | 0.631 | 0.606 | 0.513 | 0.56 | 0.436 | 0.378 | 1.06 | 0.914 | 0.893 | 0.842 | 0.673
EBC-1 | 0.832 | 0.984 | 0.542 | 0.179 | 0.116 | 0.177 | 0.191 | 0.215 | 0.202 | 0.159 |  |  |  |  |  | 0.0998 | 0.0994 | 0.101 | 0.0814 | 0.0684
EKVX | 0.942 | 0.989 | 0.771 | 0.48 | 0.317 | 0.81 | 0.977 | 1.03 | 0.819 | 0.432 | 0.751 | 0.738 | 0.805 | 0.511 | 0.318 | 0.879 | 0.996 | 0.863 | 0.572 | 0.409
EMC-BAC-2 | 0.797 | 0.795 | 0.776 | 0.636 | 0.394 | 0.812 | 0.702 | 0.708 | 0.522 | 0.368 | 0.376 | 0.423 | 0.368 | 0.305 | 0.256 | 1.03 | 0.938 | 0.814 | 0.608 | 0.513
EPLC-272H | 0.955 | 0.998 | 0.795 | 0.526 | 0.38 | 0.924 | 0.872 | 0.933 | 0.61 | 0.322 | 0.285 | 0.359 | 0.314 | 0.245 | 0.214 | 0.684 | 0.783 | 0.512 | 0.243 | 0.223
